Results published in US20250114431A1, “COMPOUND, COMPOSITION AND METHODS FOR LOWERING CIRCULATING GLUCOSE” (THE HONG KONG POLYTECHNIC UNIVERSITY, priority 2023, published 2025).

System: MIN6 pancreatic beta cells
Test: Glucose stimulated insulin secretion assay in MIN6 cells (mouse insulin ELISA)
Type: cell-based
Settings: 100 nM, positive control; FIG. 5A
Method: To verify that the glucose homeostasis is regulated through liver or hepatocytes by overexpression of Plac9 in an insulin-independent manner, an in vitro insulin secretion assay was performed on confluent pancreatic beta cells, MIN6, in each well treated by […] of Exendin-4 or different concentrations of recombinant Plac9 of mouse origin at 10, 100 and 1000 nM (n=8) and measured the insulin content of each well by a mouse insulin ELISA kit. […] A glucose uptake assay was performed on primary hepatocytes and hepatic cell line, HepG2, treated with different concentrations (from 0.125 or 0.25 to 1.0 μM) in the presence or absence of exogenous 10 nM insulin, and the results are shown in FIGS. 5B and 5C, respectively.

In the case of Exendin-4 [reference compound], the insulin secretion is reported as “significantly induces insulin secretion”.
